≈ marks a conversion by molar mass, not a printed value. Where two headings read alike, the source gives them in different places.
Legend:
[1] = test system: Staphylococcus aureus (ATCC 6538P); experiment: Antibacterial assay (MIC), Staphylococcus aureus ATCC 6538P, Luria Broth, Example 1; format: cell-based; settings: Staphylococcus aureus, ATCC6538P, read-out: Sa (minimum inhibitory concentration)
Protocol: (§1) Antibacterial Assay Method for Staphylococcus aureus (ATCC 6538P) and Enterococcus faecium
Staphylococcus aureus (ATCC 6538P)
(§2) Compounds are accurately weighed out (between approx. 1-2 mg) and dissolved in either 10% methanol/water (v/v) or 100% DMSO to a final stock concentration of 5 mg/ml.
(§3) Compounds are then diluted 1/10 in H2O to a test conc of 500 ug/ml ready for immediate use, or storage at −20° C.
(§4) Grow up an o/n starter culture of Staphylococcus aureus and each VRE strain by diluting previous culture (stored at 4° C.) 1/1000 into −50 mls Luria Broth (LB) for S. aureus or Enterococossel Broth (EB) for the VRE strains.
(§5) Incubate o/n at 37° C.+shaking. • A glycerol stock (0.6 mls bacterial culture, 0.3 mls glycerol) of each strain is kept at −80° C. if needed. Assay Set Up:
(§6) In a 96well round bottom plate add 50 ul LB/well for the S. aureus plate and add 50 ul EB/well for the VRE plates.
(§7) Add 50 ul of compound dilution (500 ug/ml test conc) to each of three top row wells (ie: tested in triplicate) and dilute 1 in 2 from the top row to the bottom row.
(§8) After the compound dilution, add to each well 50 ul of a 1/1000 dilution of the appropriate overnight bacterial culture, either S. aureus or the different VRE strains.
(§9) Plates are incubated at 37° C. on a slowly rotating plate incubator. • test concentrations are (in ug/ml) 125, 62.5, 31.25, 15.6, 7.8, 3.9, 1.9, 0.98 • final DMSO concentration in the first row of wells of the assay is 2.5% • Vancomycin is included in the assay (in triplicate) at a starting test concentration of 5 ug/ml for S. aureus and 125 ug/ml for the VRE strains Reading Results of Assay:
(§10) After incubation for 24 hrs the plates are removed and read. Inhibition of bacterial growth is indicated by lack of bacterial pellet or a clear well. In the VRE plates bacterial growth is indicated by black coloured media (EB) as well as a bacterial pellet.
(§11) Untreated control wells are included in the assay to check they all contain bacterial pellets. Uninoculated untreated control wells are included to check they all contain clear medium.
(§12) The plates are analysed for MIC and the results tabulated.

[2] = test system: #987 E. faecium van B ST39; experiment: Antibacterial assay (MIC), VRE strain #987, Enterococossel Broth, Example 1; format: cell-based, Enterococcus faecium; settings: Enterococcus faecium; Example 1 compounds; VRE #987 E. faecium van B; 24 hrs, 37° C.; read-out: 987 (minimum inhibitory concentration)
Protocol: as §1
(§13) #820 E. faecium van A ST17 #987 E. faecium van B ST39
as §2, §3, §4, §5, §6, §7, §8, §9, §10, §11, §12

[3] = test system: #820 E. faecium van A ST17; experiment: Antibacterial assay (MIC), VRE strain #820, Enterococossel Broth, Example 1; format: cell-based, Enterococcus faecium; settings: Enterococcus faecium, read-out: 820 (minimum inhibitory concentration)
Protocol: as §1, §13, §2, §3, §4, §5, §6, §7, §8, §9, §10, §11, §12

[4] = test system: #449 E. faecium van B ST17; experiment: Antibacterial assay (MIC), VRE strain #449, Enterococossel Broth, Example 1; format: cell-based, Enterococcus faecium; settings: Enterococcus faecium, read-out: 449 (minimum inhibitory concentration)
Protocol: as §1
(§14) VRE strains: #243 E. faecium van B ST17 #449 E. faecium van B ST17
as §2, §3, §4, §5, §6, §7, §8, §9, §10, §11, §12

[5] = test system: #243 E. faecium van B ST17; experiment: Antibacterial assay (MIC), VRE strain #243, Enterococossel Broth, Example 1; format: cell-based, Enterococcus faecium; settings: Enterococcus faecium, read-out: 243 (minimum inhibitory concentration)
Protocol: as §1, §14, §2, §3, §4, §5, §6, §7, §8, §9, §10, §11, §12

[6] = Example 1 compounds, S. aureus ATCC 6538P, 24 hrs, 37° C., range if at least two of three values fell within it
[7] = Example 1 compounds, VRE #820 E. faecium van A, 24 hrs, 37° C.
[8] = Example 1 compounds, VRE #449 E. faecium van B, 24 hrs, 37° C.
[9] = Example 1 compounds, VRE #243 E. faecium van B, 24 hrs, 37° C.

Compound	MIC [1, 6] [µg/mL]	MIC [2] [µg/mL]	MIC [3, 7] [µg/mL]	MIC [4, 8] [µg/mL]	MIC [5, 9] [µg/mL]	MIC ([1]; 24 h) [µg/mL]	MIC ([3]; VRE, 24 h) [µg/mL]	MIC ([4]; VRE, 24 h) [µg/mL]	MIC ([5]; VRE, 24 h) [µg/mL]
CC(C)CCOc1ccc2ccccc2c1-c1c(OCC(=O)N[C@H](CCCCN)C(=O)N[C@H](CCCNC(=N)N)C(=O)N[C@H](C(=O)OCc2ccccc2)C(C)C)ccc2ccccc12.Cl.Cl (atropisomer, axis not shown) [Compound 2]	0.99 to 15.6	15.7 to 62.5	15.7 to 62.5	15.7 to 62.5	15.7 to 62.5	–	–	–	–
CC(C)CCOc1ccc2ccccc2c1-c1c(OCC(=O)N[C@H](CCCCN)C(=O)N[C@H](CCCNC(=N)N)C(=O)N[C@@H](CC(C)C)C(=O)OCc2ccc(Cl)cc2)ccc2ccccc12.Cl.Cl (atropisomer, axis not shown) [Compound 4]	0.99 to 15.6	15.7 to 62.5	15.7 to 62.5	15.7 to 62.5	15.7 to 62.5	–	–	–	–
CC(C)CCOc1ccc2ccccc2c1-c1c(OCC(=O)N[C@H](CCCCN)C(=O)N[C@H](CCCNC(=N)N)C(=O)N[C@@H](CC(C)C)C(=O)OCc2ccc([N+](=O)[O-])cc2)ccc2ccccc12.Cl.Cl (atropisomer, axis not shown) [Compound 5]	0.99 to 15.6	15.7 to 62.5	15.7 to 62.5	15.7 to 62.5	15.7 to 62.5	–	–	–	–
CC(C)CCOc1ccc2ccccc2c1-c1c(OCC(=O)N[C@H](CCCCN)C(=O)N[C@H](CCCNC(=N)N)C(=O)N[C@@H](CC(C)C)C(=O)OCc2cccc(Cl)c2)ccc2ccccc12.Cl.Cl (atropisomer, axis not shown) [Compound 6]	0.99 to 15.6	15.7 to 62.5	15.7 to 62.5	15.7 to 62.5	15.7 to 62.5	–	–	–	–
CC(C)CCOc1ccc2ccccc2c1-c1c(OCC(=O)N[C@H](CCCCN)C(=O)N[C@H](CCCNC(=N)N)C(=O)N[C@@H](CC(C)C)C(=O)OCc2ccccc2Cl)ccc2ccccc12.Cl.Cl (atropisomer, axis not shown) [Compound 7]	0.99 to 15.6	15.7 to 62.5	15.7 to 62.5	15.7 to 62.5	15.7 to 62.5	–	–	–	–
CC(C)CCOc1ccc2ccccc2c1-c1c(OCC(=O)N[C@H](CCCCN)C(=O)N[C@H](CCCNC(=N)N)C(=O)N[C@@H](CC(C)C)C(=O)OCc2c(Cl)cccc2Cl)ccc2ccccc12.Cl.Cl (atropisomer, axis not shown) [Compound 8]	15.7 to 62.5	> 62.6	> 62.6	> 62.6	> 62.6	–	–	–	–
Cc1ccc(COC(=O)[C@H](CC(C)C)NC(=O)[C@@H](CCCNC(=N)N)NC(=O)[C@@H](CCCCN)NC(=O)COc2ccc3ccccc3c2-c2c(OCCC(C)C)ccc3ccccc23)cc1.Cl.Cl (atropisomer, axis not shown) [Compound 9]	0.99 to 15.6	15.7 to 62.5	15.7 to 62.5	15.7 to 62.5	> 62.6	–	–	–	–
CC(C)CCOc1ccc2ccccc2c1-c1c(OCC(=O)N[C@H](CCCCN)C(=O)N[C@H](CCCNC(=N)N)C(=O)N[C@@H](CC(C)C)C(=O)OCc2ccccc2)ccc2ccccc12 (atropisomer, axis not shown) [Compound 10]	0.99 to 15.6 (≈ 1.1 to 17.3 µM)	15.7 to 62.5 (≈ 17.4 to 69.3 µM)	15.7 to 62.5 (≈ 17.4 to 69.3 µM)	15.7 to 62.5 (≈ 17.4 to 69.3 µM)	15.7 to 62.5 (≈ 17.4 to 69.3 µM)	–	–	–	–
CC(C)CCOc1ccc2ccccc2c1-c1c(OCC(=O)N[C@H](CCCCN)C(=O)N[C@H](CCCNC(=N)N)C(=O)N[C@@H](CC(C)C)C(=O)OCCc2ccccc2)ccc2ccccc12.Cl.Cl (atropisomer, axis not shown) [Compound 13]	0.99 to 15.6	15.7 to 62.5	15.7 to 62.5	15.7 to 62.5	15.7 to 62.5	–	–	–	–
CC(C)CCOc1ccc2ccccc2c1-c1c(OCC(=O)N[C@H](CCCCN)C(=O)N[C@H](CCCNC(=N)N)C(=O)N[C@@H](CC(C)C)C(=O)NCc2ccccc2)ccc2ccccc12.Cl.Cl (atropisomer, axis not shown) [Compound 14]	0.99 to 15.6	> 62.6	15.7 to 62.5	15.7 to 62.5	15.7 to 62.5	–	–	–	–
CC(C)CCOc1ccc2ccccc2c1-c1c(OCC(=O)N[C@H](CCCCN)C(=O)N[C@H](CCCNC(=N)N)C(=O)N[C@@H](CC(C)C)c2ncc(Cc3ccccc3)o2)ccc2ccccc12.Cl.Cl (atropisomer, axis not shown) [Compound 18]	0.99 to 15.6	15.7 to 62.5	15.7 to 62.5	15.7 to 62.5	15.7 to 62.5	–	–	–	–
CC(C)CCOc1ccc2ccccc2c1-c1c(OCC(=O)N[C@H](CCCCN)C(=O)N[C@H](CCCNC(=N)N)C(=O)N[C@@H](Cc2ccccc2)C(=O)OCc2ccccc2)ccc2ccccc12.Cl.Cl (atropisomer, axis not shown) [Compound 19]	0.99 to 15.6	15.7 to 62.5	15.7 to 62.5	15.7 to 62.5	15.7 to 62.5	–	–	–	–
CC(C)CCOc1ccc2ccccc2c1-c1c(OCC(=O)N[C@H](CCCCN)C(=O)N[C@H](CCCNC(=N)N)C(=O)NC2(C(=O)OCc3ccccc3)CCCC2)ccc2ccccc12.Cl.Cl (atropisomer, axis not shown) [Compound 20]	0.99 to 15.6	15.7 to 62.5	15.7 to 62.5	15.7 to 62.5	15.7 to 62.5	–	–	–	–
C=CCOc1ccc2ccccc2c1-c1c(OCC(=O)N[C@H](CCCCN)C(=O)N[C@H](CCCNC(=N)N)C(=O)N[C@@H](CC(C)C)C(=O)OCc2ccccc2)ccc2ccccc12.Cl.Cl (atropisomer, axis not shown) [Compound 22]	0.99 to 15.6	15.7 to 62.5	15.7 to 62.5	15.7 to 62.5	15.7 to 62.5	–	–	–	–
C=CC[C@H](NC(=O)[C@@H](CCCNC(=N)N)NC(=O)[C@@H](CCCCN)NC(=O)COc1ccc2ccccc2c1-c1c(OCC2CCCCC2)ccc2ccccc12)C(=O)OCc1ccccc1.Cl.Cl (atropisomer, axis not shown) [Compound 23]	0.99 to 15.6	15.7 to 62.5	15.7 to 62.5	15.7 to 62.5	15.7 to 62.5	–	–	–	–
C=CC[C@H](NC(=O)[C@@H](CCCNC(=N)N)NC(=O)[C@@H](CCCCN)NC(=O)COc1ccc2ccccc2c1-c1c(OCC2CCC2)ccc2ccccc12)C(=O)OCc1ccccc1.Cl.Cl (atropisomer, axis not shown) [Compound 24]	0.99 to 15.6	15.7 to 62.5	15.7 to 62.5	15.7 to 62.5	15.7 to 62.5	–	–	–	–
C=CC[C@H](NC(=O)[C@@H](CCCNC(=N)N)NC(=O)[C@@H](CCCCN)NC(=O)COc1ccc2ccccc2c1-c1c(OCC(C)C)ccc2ccccc12)C(=O)OCc1ccccc1.Cl.Cl (atropisomer, axis not shown) [Compound 25]	0.99 to 15.6	15.7 to 62.5	15.7 to 62.5	15.7 to 62.5	15.7 to 62.5	–	–	–	–
C=CC[C@H](NC(=O)[C@@H](CCCNC(=N)N)NC(=O)[C@@H](CCCCN)NC(=O)COc1ccc2ccccc2c1-c1c(OCCCCC)ccc2ccccc12)C(=O)OCc1ccccc1.Cl.Cl (atropisomer, axis not shown) [Compound 26]	0.99 to 15.6	15.7 to 62.5	15.7 to 62.5	15.7 to 62.5	15.7 to 62.5	–	–	–	–
COC(=O)[C@@H](CCCNC(=N)N)NC(=O)CCCOc1ccc2ccccc2c1-c1c(OCCCC(=O)N[C@H](CCCNC(=N)N)C(=O)OC)ccc2ccccc12 [Compound 33]	–	–	–	–	–	0.99 to 15.6 (≈ 1.24 to 19.5 µM)	> 62.6	> 62.6	–
N=C(N)NCCC[C@@H](NC(=O)CCCOc1ccc2ccccc2c1-c1c(OCCCC(=O)N[C@H](CCCNC(=N)N)C(=O)OCc2ccccc2)ccc2ccccc12)C(=O)OCc1ccccc1 [Compound 38]	–	–	–	–	–	0.99 to 15.6 (≈ 1.04 to 16.4 µM)	–	–	15.7 to 62.5 (≈ 16.5 to 65.7 µM)

Source: patent publication US8039430B2 (University of Wollongong, priority 2005, dated 2011)
